Square brackets hold non-standard residues; d marks the D form. Ends that are not written are not given here. Peptide text beside a SMILES is read from it. Hyp = O=C(O)[C@@H]1C[C@@H](O)CN1
Experiments:
in vivo = settings: male, Wister, rat, po, 215 nmol/10 mL
Protocol: (§1) Wister strain male rats (170 g) were caused to go on a fast of one night and then subjected to experiments.
(§2) As a test method, a cannula was equipped to a heart and portal vein of each rat, and one-directional perfusion was carried out. The perfusion liquid being used was prepared in a way that to a Krebs-Ringer bicarbonate solution (KRB solution, pH 7.4) comprising 9.0 g of NaCl, 8 mL of 5.75% KCl, 2 mL of 10.55% KH2PO4, 2 mL of 19% MgSO4, 2.73 g of NaHCO3, 3.43 g of glucose and 1255 mL of water, there was added 10 g of bovine serum albumin, 0.5 mL of dexamethasone (0.123 mg/mL) and 0.5 mL of noradrenaline (0.024 mg/mL) relative to 500 mL of the aforementioned KRB solution.
(§3) An amount of 0.5 mL of 30% sulfosalicylic acid was added to 5.0 mL of perfusion sample liquid taken from portal vein, and the resultant mixture was vigorously stirred and then left in a refrigerator for one night. This sample was centrifuged at 3000 rpm for 10 minutes to remove protein.
(§4) Furthermore, 3.0 mL of the aforementioned centrifugal supernatant was weighed out and placed into a screw opening test tube, and thereto an equivalent of concentrated hydrochloric acid was added to carry out hydrolysis at 110° C. for 24 hours. Concentration to dryness was carried out with an evaporator to remove hydrochloric acid, and then the residue was dissolved into 5 mL of distilled water, and thereto several drops of saturated lithium hydroxide solution were added to adjust pH to the range of 5 to 7, and the volume was adjusted to 10 mL. […] A value obtained by subtracting the free type Hyp amount before hydrolysis from the total Hyp amount after hydrolysis is a peptide-form Hyp amount.
(§5) Analysis of the dipeptides in the perfusion liquid was carried out by reversed-phase HPLC analysis. As HPLC apparatus, LCSS-905 system produced by JASCO Corporation comprising a liquid-feeding pump, a decassa, an autosamplor, a column oven, ultraviolet spectrophotometer, a printer and a system controller was used. As the reversed-phase column, Nova Pak C18 (3.9×150 mm) was used.
(§6) A linear-gradient moving bed of a 0.1% TFA-containing acetonitrile-water system was used, the injection amount of the sample was 70 μL, and the flow rate was 1 mL/min.
(§7) As HPLC apparatus, U980HPLC (produced by JASCO Corporation) was used. This apparatus was equipped with an ODS (C18) column (Mightysil RP-18, 2×250 mm, produced by Kanto Chemical Co Ltd). The moving bed solvent was a 0.2% formic acid-containing acetonitrile-water system, and the concentration was raised from 0% to 40% acetonitrile by linear gradient in 40 minutes, and washing was carried out with 100% acetonitrile for 10 minutes. The injection amount of the sample was 10 μL, and the column temperature was 40° C.
(§8) The MS analysis was carried out in accordance with an MS/MS system with a Quattro LC mass spectrophotometer (Micromass, Manchester, UK) by a Multiple Reaction Monitoring method of 4 channels. That is to say, an eluate from the HPLC was monitored by m/z being [M+H]^+ and m/s of its fragment ion species.

osteoclasts = assay: Evaluation Test 1-1: Pit assay, osteoclasts cultured on dentin slices; assay type: cell-based, mouse; settings: control (blank) = 100, n = 6; for Relative number (%) of TRAP positive multinucleate giant cells (osteoclasts) in culture on dentin slices: culture about 1 week on dentin slices; for Relative number (%) of Pit: number of absorption pits on dentin slices, culture about 1 week
Protocol: In addition, the degree of inhibition of differentiation and activation of osteoclasts by the various peptides and amino acids was evaluated by the following Pit assay. That is to say, the Pit assay where osteoclasts were cultured on […] was carried out in accordance with Kakudo S, et al. (1996). J. Bone Miner. Metab. 14: 129-136, specifically, as follows.
Precursory cells of osteoclasts derived from young mouse […] were freeze-preserved at −80° C. together with a bone marrow stroma cells-containing suspension in the presence of 10% DMSO, thereby making matured osteoclasts extinct.
These cells of 2.0×10^5 in number were seeded into each well of a 96-well plate where dentin slices were set, and each peptide to be tested was added to the culture liquid, and culture was carried out at 37° C. in 5% CO2 for about 1 week. Thereafter, cells were removed from the dentin slices by a silicon-made rubber POLICEMAN, and then the dentin slices were dyed with an […] for several minutes. Hereupon, the number of TRAP dyeing positive multinucleate giant cells (osteoclasts) was counted by the TRAP dyeing, and the number relative to the number of cells in the control (blank) was calculated. Thereafter, the Pit number (number of absorption pits) by osteoclasts was counted under a microscope, and the degree of inhibition of activity of osteoclasts by each peptide to be tested was indicated by the ratio relative to the blank (control).

[1] = tested on: osteoblast stock MC3T3-E1; assay: Evaluation Test 1-2: promotion of differentiation and activation of osteoblasts (ALP); assay type: cell-based; settings: MC3T3-E1, 2.5 mmol/L end concentration, after 10 days culture, control (blank) = 100
Protocol: Each of dexamethasone (end concentration: 1 nmol/L), β-glycerophosphoric acid (end concentration: 5 mmol/L), and ascorbic acid (end concentration: 100 μg/mL) was added to an osteoblast stock MC3T3-E1 culture liquid, and then the Hyp-Gly and a 1:1 mixture of the Hyp-Gly and the Pro-Hyp were used, and each of them was added to the aforementioned culture liquid so as to be 2.5 mmol/L in end concentration. After 10 days from the culture, each promotion activity of alkaline phosphatase (ALP) being a marker enzyme for differentiation and calcification of osteoblasts was examined. In the same way, the ALP promotion activity when using the other dipeptides (Pro-Hyp, Ala-Hyp, Leu-Hyp, Phe-Hyp, Ser-Hyp), the tripeptide (Pro-Hyp-Gly) and the amino acids (Pro, Hyp) was examined. Furthermore, as a control, the ALP promotion activity when adding no peptide (blank) was also examined.

[2] = tested on: osteoclasts (primary mouse bone marrow cell culture); assay: Evaluation Test 1-1: osteoclast differentiation culture on plastic Petri dish (TRAP); assay type: cell-based; settings: 625 μM end concentration, after 6 days culture, control (blank) = 100, n = 6
Protocol: The evaluation was carried out in accordance with Kobayashi Y. et al.'s osteoclast differentiation culture method [J. Bone Miner. Metab. (2004) 22: p. 318-328].
That is to say, the Hyp-Gly and a 1:1 mixture of the Hyp-Gly and the Pro-Hyp were used, and each of them was added to a primary mouse bone marrow cell culture liquid so as to be 625 μM in end concentration. After 6 days from the culture, each inhibition activity of tartaric acid resistant acid phosphatase (TRAP) being a marker enzyme was examined. In the same way, the TRAP inhibition activity when using the other dipeptides (Pro-Hyp, Ala-Hyp, Leu-Hyp, Phe-Hyp, Ser-Hyp), the tripeptide (Pro-Hyp-Gly) and the amino acids (Pro, Hyp) was examined. Furthermore, as a control, the TRAP inhibition activity when adding no peptide (blank) was also examined.

[3] = tested on: precursory cartilage cell stock ATDC5; assay: Evaluation Test 2-2: ALP inhibition activity of Pro-Hyp and comparisons; assay type: cell-based; settings: ATDC5, 2.5 mM, after 5 days culture, N group = 1.0
Protocol: The aforementioned PC (PC group), FC (FC group) and PC-CA (PC-CA group) were used, and each collagen peptide was added to a precursory cartilage cell stock ATDC5 culture liquid so as to be 0.1% in end concentration. After 5 days from the culture, each inhibition activity of alkaline phosphatase (ALP) being a marker enzyme for hypertrophied cartilages and calcification was examined. For comparison, the ALP inhibition activity when adding no peptide (N group), the ALP inhibition activity when using peptone (Pe group) of 0.1% in end concentration, and the ALP inhibition activity when using the aforementioned PC-Cont (PC-Cont group) and PC-CA-Cont (PC-CA-Cont group) were also examined.
The ALP inhibition activity was examined in the same way as of evaluation test 2-1 except that: a dipeptide Pro-Hyp as synthesized by a solid-phase method (produced by PH Japan) ([Pro-Hyp] group) was used, the amount of its addition was changed to 2.5 mM and, for comparison, no peptide was added (N group) or glycine being a free amino acid (Gly group), proline being a free amino acid (Pro group), hydroxyproline being a free amino acid (Hyp group), a free amino acid mixture of proline and hydroxyproline ([Pro+Hyp] group), a free amino acid mixture of glycine, proline and hydroxyproline ([Gly+Pro+Hyp] group), and a tripeptide Pro-Hyp-Gly as synthesized by a solid-phase method (produced by PH Japan) ([Pro-Hyp-Gly] group) were used.

[4] = tested on: precursory cartilage cell stock ATDC5; assay: Evaluation Test 1-3: inhibition of degeneration of cartilage cells (ALP); assay type: cell-based; settings: ATDC5, 2.5 mmol/L end concentration, after 5 days culture, control (blank) = 100
Protocol: The Hyp-Gly, a 1:1 mixture of the Hyp-Gly and the Pro-Hyp and a 1:1:1 mixture of the Hyp-Gly, the Pro-Hyp and the Ala-Hyp were used, and each dipeptide was added to a precursory cartilage cell stock ATDC5 culture liquid so as to be 2.5 mmol/L in end concentration. After 5 days from the culture, each inhibition activity of alkaline phosphatase (ALP) being a marker enzyme for hypertrophied cartilages and calcification was examined. In the same way, the ALP activity when using the other dipeptides (Pro-Hyp, Ala-Hyp, Leu-Hyp, Phe-Hyp, Ser-Hyp), the tripeptide (Pro-Hyp-Gly) and the amino acids (Pro, Hyp) was examined. Furthermore, as a control, the ALP activity when adding no peptide (blank) was also examined.

[5] = rat, in vivo
Protocol: as §1, §2, §3, §4, §5, §6, §7, §8

With `N[C@@H](CO)C(=O)N1C[C@H](O)C[C@H]1C(=O)O` [Comparative Example 3, Ser-Hyp] (H-Ser-[Hyp]-OH; N-terminus and C-terminus assumed) the level at time molar (in vivo) was 0.7 µM.

With `O=C(O)[C@@H]1CCCN1` [Comparative Example 5, Proline] the “Relative number (%) of TRAP positive multinucleate giant cells (osteoclasts) in culture on dentin slices” value (from here on “Relative number (%) … on dentin slices”) (osteoclasts) was 119 ± 20%, the “Relative number (%) of Pit” value (osteoclasts) was 121 ± 23% and the “Relative value (%) of ALP” value [1] was 97 ± 15%. The “Relative area (%) of TRAP positive multinucleate giant cells (osteoclasts) in culture on plastic Petri dish” value (“Relative area (%)” for short) [2] was 125 ± 69%, the “Relative number (%) of TRAP positive multinucleate giant cells (osteoclasts) in culture on plastic Petri dish” value (“Relative number (%) … on plastic Petri dish” below) [2] was 119 ± 44% and the “Relative ALP activity” value [3] was 0.98 ± 0.1. For the same compound, the “Relative value (%) of ALP” value [4] was 98 ± 10%.

With `O=C(O)[C@@H]1C[C@@H](O)CN1` [Comparative Example 6, hydroxyproline] the “Relative number (%) … on dentin slices” value (osteoclasts) was 141 ± 9 %, the “Relative number (%) of Pit” value (osteoclasts) was 131 ± 11 % and the “Relative value (%) of ALP” value [1] was 103 ± 25%. For the same compound, the “Relative area (%)” value [2] was 117 ± 13 %, the “Relative number (%) … on plastic Petri dish” value [2] was 126 ± 4 % and the “Relative ALP activity” value [3] was 1.0 ± 0.01. For the same compound, the “Relative value (%) of ALP” value [4] was 101 ± 1%.

In the case of `O=C(O)CNC(=O)[C@@H]1C[C@@H](O)CN1` [Example 1, Hyp-Gly] (H-[Hyp]-Gly-OH; N-terminus and C-terminus assumed), the “Intestine absorption, in words” value [5] is reported as “absorbed into intestine extremely rapidly and stably (without being decomposed into amino acids)” and the level at time molar (in vivo) is reported as 9.8 µM.

For `NCC(=O)O` [Gly, glycine], the “Relative ALP activity” value [3] was 1.1 ± 0.01.

In the case of `O=C(O)[C@@H]1C[C@@H](O)CN1C(=O)[C@@H]1CCCN1` [Referential Example 1-1, Pro-Hyp] (H-Pro-[Hyp]-OH; N-terminus and C-terminus assumed), the “Intestine absorption, in words” value [5] is reported as “absorbed into intestine extremely rapidly and stably (without being decomposed into amino acids)” and the level at time molar (in vivo) is reported as 21.3 µM.

`C[C@H](N)C(=O)N1C[C@H](O)C[C@H]1C(=O)O` [Referential Example 1-2, Ala-Hyp] (H-Ala-[Hyp]-OH; N-terminus and C-terminus assumed) gave a level at time molar (in vivo) of 1.2 µM.

For Leu-Hyp [Comparative Example 1], the “Relative number (%) … on dentin slices” value (osteoclasts) was 101 ± 12%, the “Relative number (%) of Pit” value (osteoclasts) was 91 ± 11% and the “Relative value (%) of ALP” value [1] was 92 ± 12%. For the same compound, the “Relative area (%)” value [2] was 83 ± 27%, the “Relative number (%) … on plastic Petri dish” value [2] was 88 ± 22% and the “Relative value (%) of ALP” value [4] was 93 ± 12%.

In the case of Phe-Hyp [Comparative Example 2], the “Relative number (%) … on dentin slices” value (osteoclasts) is reported as 98 ± 11%, the “Relative number (%) of Pit” value (osteoclasts) is reported as 109 ± 15% and the “Relative value (%) of ALP” value [1] is reported as 109 ± 11%. The “Relative area (%)” value [2] was 118 ± 21%, the “Relative number (%) … on plastic Petri dish” value [2] was 119 ± 16% and the “Relative value (%) of ALP” value [4] was 109 ± 11%.

For Pro-[Hyp]-Gly [Comparative Example 4], the “Relative number (%) … on dentin slices” value (osteoclasts) was 91 ± 11%, the “Relative number (%) of Pit” value (osteoclasts) was 97 ± 13% and the “Relative value (%) of ALP” value [1] was 103 ± 22%. For the same compound, the “Relative area (%)” value [2] was 113 ± 11%, the “Relative number (%) … on plastic Petri dish” value [2] was 109 ± 15% and the “Relative ALP activity” value [3] was 0.8 ± 0.01. For the same compound, the “Relative value (%) of ALP” value [4] was 84 ± 14%.

Source: US8227424B2, “Collagen peptide, dipeptide and malady inhibitor” (Nitta Gelatin Inc., priority 2008, dated 2012)
